Among the data in ChEMBL document CHEMBL1126029, “Definition and display of steric, hydrophobic, and hydrogen-bonding properties of ligand binding sites in proteins using Lee and Richards accessible surface: validation of a high-resolution graphical tool for drug design” (J Med Chem, 1992) are Ki values, retold here.

This assay deals with T1, Thermolysin (Bacillus thermoproteolyticus, UniProt P00800).
T1 sequence (P00800 whole entry): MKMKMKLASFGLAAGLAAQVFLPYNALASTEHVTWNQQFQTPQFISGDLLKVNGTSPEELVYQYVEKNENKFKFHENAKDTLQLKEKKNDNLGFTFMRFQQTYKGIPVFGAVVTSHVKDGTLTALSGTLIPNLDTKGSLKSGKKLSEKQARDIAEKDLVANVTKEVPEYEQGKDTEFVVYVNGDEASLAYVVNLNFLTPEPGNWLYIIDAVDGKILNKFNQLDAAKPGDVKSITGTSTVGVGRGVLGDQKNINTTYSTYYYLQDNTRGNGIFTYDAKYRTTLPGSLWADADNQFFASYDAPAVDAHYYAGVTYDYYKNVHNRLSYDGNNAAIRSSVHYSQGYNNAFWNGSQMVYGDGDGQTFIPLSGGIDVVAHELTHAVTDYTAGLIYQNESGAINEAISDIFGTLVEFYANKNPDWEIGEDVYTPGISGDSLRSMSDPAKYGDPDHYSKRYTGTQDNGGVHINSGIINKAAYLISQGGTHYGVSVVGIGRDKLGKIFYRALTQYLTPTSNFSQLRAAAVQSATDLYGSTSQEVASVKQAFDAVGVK
The assay can be described thus: Inhibitory constant against thermolysin.
As usually defined, the Ki is a measure of affinity in units of concentration, obtained from inhibition or displacement. A lower Ki goes with tighter binding. Compound `C[C@H](NC(=O)C(CS)Cc1ccccc1)C(=O)NCC(N)=O` (some centres not stated) showed a Ki of 750 nM.
In turn, `CC(C)C[C@H](NC(=O)[C@H](CC(C)C)NC(=O)CN(C(=O)OCc1ccccc1)P(=O)(O)O)C(=O)O` came in with a Ki of 9.1 nM.
For `CC(C)C[C@H](NP(=O)(O)O)C(N)=O` the value was 21300 nM.
For `CC(C)C[C@H](NP(=O)(O)O[C@@H]1O[C@@H](C)[C@H](O)[C@@H](O)[C@H]1O)C(=O)N[C@@H](Cc1c[nH]c2ccccc12)C(=O)O` [PHOSPHORAMIDON] the value was 28 nM; for `CC(C)C[C@H](NC(CCCc1ccccc1)C(=O)O)C(=O)N[C@@H](Cc1c[nH]c2ccccc12)C(=O)O` (some centres not stated), 50 nM; for `O=C(O)CNC(=O)C(CS)Cc1ccccc1` (configuration not stated) [THIORPHAN], 1800 nM.
For `O=C(O)CC(=O)N[C@@H](CS)Cc1ccccc1` the value was 2300 nM.
